The values that follow come from ChEMBL document CHEMBL4359900 (Eur J Med Chem, 2019).

Molecules are shown by their SMILES. The source made the active and inactive calls. No cut-off for these calls is given here.

Broadly, the Emax is the greatest response seen or fitted, relative to the assay's reference.

T3 sequence (P41595 whole entry): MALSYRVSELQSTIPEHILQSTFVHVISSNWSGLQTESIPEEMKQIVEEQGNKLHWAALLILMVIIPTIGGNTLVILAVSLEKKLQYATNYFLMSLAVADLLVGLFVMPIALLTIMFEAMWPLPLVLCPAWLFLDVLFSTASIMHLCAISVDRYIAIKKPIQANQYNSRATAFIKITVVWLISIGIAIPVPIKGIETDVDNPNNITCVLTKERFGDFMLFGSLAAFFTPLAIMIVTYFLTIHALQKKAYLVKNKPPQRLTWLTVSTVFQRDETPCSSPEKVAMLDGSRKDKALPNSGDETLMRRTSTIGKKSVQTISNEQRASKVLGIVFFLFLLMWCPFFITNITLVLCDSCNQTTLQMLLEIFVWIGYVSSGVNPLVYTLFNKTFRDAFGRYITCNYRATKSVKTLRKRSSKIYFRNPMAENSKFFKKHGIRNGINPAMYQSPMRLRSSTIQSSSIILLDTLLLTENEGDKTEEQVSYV

The target in the first data set is T1, 5-hydroxytryptamine receptor 2C (Homo sapiens) (UniProt P28335).
T1 sequence (whole entry): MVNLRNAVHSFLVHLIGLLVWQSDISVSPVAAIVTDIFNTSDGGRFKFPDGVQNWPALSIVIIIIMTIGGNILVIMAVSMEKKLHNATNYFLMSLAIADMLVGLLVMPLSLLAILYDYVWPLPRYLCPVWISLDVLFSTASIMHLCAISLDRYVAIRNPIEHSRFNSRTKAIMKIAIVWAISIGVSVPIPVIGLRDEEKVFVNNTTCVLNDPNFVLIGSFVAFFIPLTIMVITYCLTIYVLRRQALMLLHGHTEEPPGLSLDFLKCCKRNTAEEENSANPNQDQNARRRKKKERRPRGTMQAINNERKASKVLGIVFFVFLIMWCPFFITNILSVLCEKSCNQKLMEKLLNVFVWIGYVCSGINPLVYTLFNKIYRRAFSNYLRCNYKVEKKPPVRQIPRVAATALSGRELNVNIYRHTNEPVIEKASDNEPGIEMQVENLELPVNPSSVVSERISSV
Briefly: (§1) Agonist activity at recombinant human unedited 5HT2C receptor isoform INI expressed in Flp-In-293 cells assessed as increase in calcium influx measured for 300 secs by Fluo-4 dye based FLIPR assay. It is filed as functional, cell-based.
Conditions: not given
Take `Cl.NC[C@@H]1C[C@@]1(F)c1cccc(F)c1`: the pEC50 entry was “inactive”.

Consider `Cl.NC[C@@H]1C[C@@]1(F)c1ccccc1Br`, for which the pEC50 entry is “inactive”.

A further data set has as its target T2, 5-hydroxytryptamine receptor 2C (Homo sapiens, UniProt P28335).
T2 sequence (P28335 whole entry): T1 sequence (whole entry)
The data set is described as §1. It is filed as functional, cell-based.
Conditions: not given
For the molecule `NC[C@H]1C[C@]1(F)c1cccc(F)c1`, the EC50 was 3 nM.

Regarding `COc1ccccc1CNCC1CC1(F)c1cc(F)ccc1OC` (racemic), the EC50 was determined as 229 nM.

For `Cl.NC[C@H]1C[C@]1(F)c1ccccc1Br`, the EC50 was 312 nM.

In the case of `NCC1C(c2ccccc2)C1(F)F` (racemic), the EC50 is 4430 nM.

Take `Cc1cccc([C@@]2(F)C[C@@H]2CN)c1.Cl`: the EC50 came to 8 nM.

Consider `CNC[C@H]1C[C@]1(F)c1ccccc1`, for which the EC50 stood at 291 nM.

With `COc1ccccc1CNC[C@H]1C[C@]1(F)c1ccccc1`, the EC50 was 789 nM.

As to `NC[C@@H]1C[C@@]1(F)c1ccccc1`, the EC50 was determined as 4110 nM.

For `NC[C@H]1C[C@]1(F)c1cccc(Cl)c1`, the EC50 was determined as 12 nM.

`NC[C@H]1C[C@]1(F)c1ccccc1`: the EC50 was 4.7 nM.

On to `Cc1cccc([C@]2(F)C[C@H]2CN)c1.Cl`, for which the EC50 amounted to 5250 nM.

Regarding `Cl.NC[C@@H]1C[C@@]1(F)c1cccc(Cl)c1`, the EC50 was determined as 1060 nM.

`COc1ccc(F)cc1C1(F)CC1CN` (racemic): the EC50 is 598 nM.

The next data set concerns the target T1, 5-hydroxytryptamine receptor 2C (Homo sapiens). Briefly: Agonist activity at recombinant human unedited 5HT2C receptor isoform INI expressed in Flp-In-293 cells assessed as increase in calcium influx measured for 300 secs by Fluo-4 dye based FLIPR assay relative to control. It is filed as functional, cell-based.
Conditions: not given
For the molecule `NC[C@H]1C[C@]1(F)c1cccc(F)c1`, the Emax was found to be 107%.

Turning to `COc1ccccc1CNCC1CC1(F)c1cc(F)ccc1OC` (racemic), the Emax is 103%.

Regarding `Cl.NC[C@H]1C[C@]1(F)c1ccccc1Br`, the Emax came to 71%.

Turning to `NCC1C(c2ccccc2)C1(F)F` (racemic), the Emax was 82%.

For `Cc1cccc([C@@]2(F)C[C@@H]2CN)c1.Cl`, the maximum response (Emax) came to 96%.

For the molecule `CNC[C@H]1C[C@]1(F)c1ccccc1`, the Emax was found to be 96%.

For the molecule `COc1ccccc1CNC[C@H]1C[C@]1(F)c1ccccc1`, the Emax was 85%.

With `NC[C@@H]1C[C@@]1(F)c1ccccc1`, the Emax came out at 87%.

For the molecule `NC[C@H]1C[C@]1(F)c1cccc(Cl)c1`, the maximal effect (Emax) is 110%.

As for `NC[C@H]1C[C@]1(F)c1ccccc1`, the Emax is 98%.

Turning to `Cc1cccc([C@]2(F)C[C@H]2CN)c1.Cl`, the maximal effect (Emax) was 97%.

Turning to `Cl.NC[C@@H]1C[C@@]1(F)c1cccc(Cl)c1`, the Emax amounted to 92%.

Turning to `COc1ccc(F)cc1C1(F)CC1CN` (racemic), the Emax came to 90%.

For another data set the target is unchanged. As to the kind of experiment: Agonist activity at recombinant human unedited 5HT2C receptor isoform INI expressed in Flp-In-293 cells assessed as increase in calcium influx up to 10 uM measured for 300 secs by Fluo-4 dye based FLIPR assay. It is filed as functional, cell-based.
Conditions: not given
As for `Cl.NC[C@@H]1C[C@@]1(F)c1cccc(F)c1`, the outcome was inactive.

For `Cl.NC[C@@H]1C[C@@]1(F)c1ccccc1Br`, the outcome was inactive.

Another data set has as its target T3, 5-hydroxytryptamine receptor 2B (Homo sapiens, UniProt P41595). As to the kind of experiment: Agonist activity at recombinant human 5HT2B receptor expressed in Flp-In-293 cells assessed as increase in calcium influx measured for 300 secs by Fluo-4 dye based FLIPR assay. The following applies: read-out: EC50. Type of data set: cell-based.
For the molecule `NC[C@H]1C[C@]1(F)c1cccc(F)c1`, the EC50 turned out to be 2 nM.

Take `COc1ccccc1CNCC1CC1(F)c1cc(F)ccc1OC` (racemic): the EC50 is 285 nM.

Take `NCC1C(c2ccccc2)C1(F)F` (racemic): the EC50 came out at 2350 nM.

With `CNC[C@H]1C[C@]1(F)c1ccccc1`, the EC50 worked out at 565 nM.

Turning to `COc1ccccc1CNC[C@H]1C[C@]1(F)c1ccccc1`, the EC50 came out at 363 nM.

For `NC[C@@H]1C[C@@]1(F)c1ccccc1`, the EC50 was 903 nM.

As for `NC[C@H]1C[C@]1(F)c1cccc(Cl)c1`, the EC50 is 22 nM.

Turning to `NC[C@H]1C[C@]1(F)c1ccccc1`, the EC50 stood at 10 nM.

For the molecule `COc1ccc(F)cc1C1(F)CC1CN` (racemic), the EC50 is 116 nM.

The same data set, now with this note: read-out: pEC50 (converted).
As for `NC[C@H]1C[C@]1(F)c1cccc(F)c1`, the EC50 is 2.29 nM.

Another data set deals with 5-HT2B receptor (Homo sapiens, UniProt P41595). As to the kind of experiment: Agonist activity at recombinant human 5HT2B receptor expressed in Flp-In-293 cells assessed as increase in calcium influx measured for 300 secs by Fluo-4 dye based FLIPR assay relative to control. Type of data set: cell-based. The following applies: Flp-In-293 cells expressing recombinant human 5HT2B receptor.
5-HT2B receptor, sequence (P41595 whole entry): as the sequence (P41595 whole entry) above
`NC[C@H]1C[C@]1(F)c1cccc(F)c1`: the Emax at 5 min amounted to 106%.

As for `COc1ccccc1CNCC1CC1(F)c1cc(F)ccc1OC` (racemic), the Emax at 5 min is 61%.

As to `NCC1C(c2ccccc2)C1(F)F` (racemic), the Emax at 5 min was found to be 62%.

As for `CNC[C@H]1C[C@]1(F)c1ccccc1`, the Emax at 5 min stood at 42%.

As to `COc1ccccc1CNC[C@H]1C[C@]1(F)c1ccccc1`, the Emax at 5 min is 27%.

On to `NC[C@@H]1C[C@@]1(F)c1ccccc1`, for which the Emax at 5 min worked out at 77%.

Turning to `NC[C@H]1C[C@]1(F)c1cccc(Cl)c1`, the Emax at 5 min turned out to be 91%.

`NC[C@H]1C[C@]1(F)c1ccccc1`: the Emax at 5 min was 104%.

For `COc1ccc(F)cc1C1(F)CC1CN` (racemic), the Emax at 5 min is 79%.

The target of a further data set is T3, 5-hydroxytryptamine receptor 2B. As to the kind of experiment: Agonist activity at recombinant human 5HT2B receptor expressed in Flp-In-293 cells assessed as increase in calcium influx up to 10 uM measured for 300 secs by Fluo-4 dye based FLIPR assay. Type of data set: cell-based. The following applies: flp-in-293, 5 min.
Turning to `Cl.NC[C@H]1C[C@]1(F)c1ccccc1Br`, the Activity result is on record as “Not Active”.

For `Cc1cccc([C@@]2(F)C[C@@H]2CN)c1.Cl`, the Activity entry is “Not Active”.

Regarding `Cl.NC[C@@H]1C[C@@]1(F)c1cccc(F)c1`, the Activity entry was “Not Active”.

With `Cc1cccc([C@]2(F)C[C@H]2CN)c1.Cl`, the Activity entry is reported as “Not Active”.

Take `Cl.NC[C@@H]1C[C@@]1(F)c1cccc(Cl)c1`: the Activity result was “Not Active”.

Turning to `Cl.NC[C@@H]1C[C@@]1(F)c1ccccc1Br`, the Activity result was “Not Active”.

In a further data set the target is T4, 5-hydroxytryptamine receptor 2A (Homo sapiens, UniProt P28223). Briefly: Agonist activity at recombinant human 5HT2A receptor expressed in Flp-In-293 cells assessed as increase in calcium influx measured for 300 secs by Fluo-4 dye based FLIPR assay. It is filed as cell-based.
T4 sequence (P28223 whole entry): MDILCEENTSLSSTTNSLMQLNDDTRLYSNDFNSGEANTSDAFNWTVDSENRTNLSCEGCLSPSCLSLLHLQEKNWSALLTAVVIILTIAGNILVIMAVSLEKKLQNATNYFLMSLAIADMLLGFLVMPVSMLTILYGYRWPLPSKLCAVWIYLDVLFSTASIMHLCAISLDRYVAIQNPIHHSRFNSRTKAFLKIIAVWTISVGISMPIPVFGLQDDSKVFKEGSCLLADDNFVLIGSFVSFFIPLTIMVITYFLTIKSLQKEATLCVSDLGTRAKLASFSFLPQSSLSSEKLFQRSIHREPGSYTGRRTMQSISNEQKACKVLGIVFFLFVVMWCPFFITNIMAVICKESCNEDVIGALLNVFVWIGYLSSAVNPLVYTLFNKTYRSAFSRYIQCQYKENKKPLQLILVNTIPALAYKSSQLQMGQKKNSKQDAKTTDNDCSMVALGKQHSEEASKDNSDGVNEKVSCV
Conditions: not given
On to `NC[C@H]1C[C@]1(F)c1cccc(F)c1`, for which the EC50 worked out at 3 nM.

Take `COc1ccccc1CNCC1CC1(F)c1cc(F)ccc1OC` (racemic): the EC50 was 31 nM.

As to `Cl.NC[C@H]1C[C@]1(F)c1ccccc1Br`, the EC50 came out at 122 nM.

In the case of `NCC1C(c2ccccc2)C1(F)F` (racemic), the EC50 came to 3680 nM.

On to `Cc1cccc([C@@]2(F)C[C@@H]2CN)c1.Cl`, for which the EC50 was 162 nM.

On to `CNC[C@H]1C[C@]1(F)c1ccccc1`, for which the EC50 is 156 nM.

With `COc1ccccc1CNC[C@H]1C[C@]1(F)c1ccccc1`, the EC50 came out at 320 nM.

As for `NC[C@@H]1C[C@@]1(F)c1ccccc1`, the EC50 came to 1830 nM.

With `NC[C@H]1C[C@]1(F)c1cccc(Cl)c1`, the EC50 came to 23 nM.

On to `NC[C@H]1C[C@]1(F)c1ccccc1`, for which the EC50 is 10 nM.

For `COc1ccc(F)cc1C1(F)CC1CN` (racemic), the EC50 turned out to be 352 nM.

The target in the next data set is 5-HT2A receptor (Homo sapiens, UniProt P28223). As to the kind of experiment: (§2) Agonist activity at recombinant human 5HT2A receptor expressed in Flp-In-293 cells assessed as increase in calcium influx measured for 300 secs by Fluo-4 dye based FLIPR assay relative to control. It is filed as cell-based. Particulars: Flp-In-293 cells expressing recombinant human 5HT2A receptor.
5-HT2A receptor, sequence (P28223 whole entry): as above
As for `NC[C@H]1C[C@]1(F)c1cccc(F)c1`, the Emax at 5 min came out at 83%.

Consider `COc1ccccc1CNCC1CC1(F)c1cc(F)ccc1OC` (racemic), for which the Emax at 5 min is 92%.

On to `Cl.NC[C@H]1C[C@]1(F)c1ccccc1Br`, for which the Emax at 5 min was 38%.

With `NCC1C(c2ccccc2)C1(F)F` (racemic), the Emax at 5 min is 43%.

In the case of `Cc1cccc([C@@]2(F)C[C@@H]2CN)c1.Cl`, the Emax at 5 min was determined as 71%.

For `CNC[C@H]1C[C@]1(F)c1ccccc1`, the Emax at 5 min turned out to be 40%.

Take `COc1ccccc1CNC[C@H]1C[C@]1(F)c1ccccc1`: the Emax at 5 min is 83%.

`NC[C@@H]1C[C@@]1(F)c1ccccc1`: the maximum response (Emax) at 5 min came to 47%.

Turning to `NC[C@H]1C[C@]1(F)c1cccc(Cl)c1`, the Emax at 5 min turned out to be 102%.

Turning to `NC[C@H]1C[C@]1(F)c1ccccc1`, the Emax at 5 min turned out to be 106%.

For `COc1ccc(F)cc1C1(F)CC1CN` (racemic), the maximum response (Emax) at 5 min is 86%.

The target of a further data set is T4, 5-hydroxytryptamine receptor 2A. Described as §2. Particulars: flp-in-293, 5 min. It is filed as cell-based.
For `NCCc1c[nH]c2ccc(O)cc12` [SEROTONIN], the maximum response (Emax) is 100%.

For another data set the target is unchanged. As to the kind of experiment: Agonist activity at recombinant human 5HT2A receptor expressed in Flp-In-293 cells assessed as increase in calcium influx up to 10 uM measured for 300 secs by Fluo-4 dye based FLIPR assay. Type of data set: cell-based. The following applies: flp-in-293, 5 min.
Regarding `Cl.NC[C@@H]1C[C@@]1(F)c1cccc(F)c1`, the Activity result was “Not Active”.

On to `Cc1cccc([C@]2(F)C[C@H]2CN)c1.Cl`, for which the Activity result is listed as “Not Active”.

Turning to `Cl.NC[C@@H]1C[C@@]1(F)c1cccc(Cl)c1`, the Activity entry is “Not Active”.

`Cl.NC[C@@H]1C[C@@]1(F)c1ccccc1Br`: the Activity result is recorded as “Not Active”.

The species entered for another data set is Homo sapiens. As to the kind of experiment: Selectivity ratio of EC50 for recombinant human 5HT2B receptor expressed in Flp-In-293 cells to EC50 for recombinant human unedited 5HT2C receptor isoform INI expressed in Flp-In-293 cells. It is filed as cell-based.
Conditions: not given
Regarding `NC[C@H]1C[C@]1(F)c1ccccc1`, the Ratio EC50 was found to be 2.

In the next data set the target is Serotonin 2 receptors; 5-HT2a & 5-HT2c (Homo sapiens) (UniProt P28223+P28335). Briefly: Selectivity ratio of EC50 for recombinant human 5HT2A receptor expressed in Flp-In-293 cells to EC50 for recombinant human unedited 5HT2C receptor isoform INI expressed in Flp-In-293 cells. Type of data set: cell-based.
Serotonin 2 receptors; 5-HT2a & 5-HT2c (Homo sapiens), sequence (P28223 whole entry, looked up, one chain of several, canonical isoform): as the sequence (P28223 whole entry) above
Conditions: not given
As for `Cc1cccc([C@@]2(F)C[C@@H]2CN)c1.Cl`, the Ratio EC50 is 20.
